This is an account of results in patent US20240115556A1, “A JMJD6 TARGETING AGENT FOR TREATING PROSTATE CANCER” (Cancer Research Technology Limited, priority 2020, published 2024).

In one data set the target is T1, JMJD6 (1-362) (Homo sapiens, UniProt Q6NYC1).
T1 construct: by JMJD6 (1-362, prepared as reported); made in house
Briefly: LC-MS assay for JMJD6 inhibition (hydroxylation of LUC7L2 peptide substrate). Set-up: dose or concentration left out as unconfirmed. Conditions: 8-point 3-fold serial dilution of 2,4-PDCA, 2 hours at 37° C. Format: biochemical. The text has this: Liquid Chromatography Mass Spectrometry (LC-MS) assays for JMJD6 inhibition by 2,4-PDCA Hydroxylation of a 12-mer peptide substrate (NPKRSRSREHRR, prepared with a C-terminal amide) of the LUC7L2 pre-mRNA splicing factor by JMJD6 (1-362, prepared as reported) was monitored by liquid chromatography mass spectrometry (LC-MS) using an Agilent 1290 infinity II LC system equipped with an Agilent 1290 infinity binary pump and coupled to an Agilent 6550 Accurate Mass Quadrupole Time of Flight (Q-TOF) mass spectrometer. Note this construct has hydroxylation but not demethylation activity. All JMJD61-362 enzyme reactions were performed in 50 mM Tris.Cl pH 7.5 (prepared fresh each day) at 37° C. […] Peptide ionization was monitored in the positive ion electrospray ionisation (ESI) mode with a drying gas temperature of 280° C., a drying gas flow rate of 13 L/minute, nebulizer gas pressure of 40 PSI, sheath gas temperature of 350° C., sheath gas flow rate of 12 L/min and a nozzle voltage of 1000V. […] The % conversion of the peptide substrate to the +16 hydroxylated peptide was calculated using the equation: % conversion=100×hydroxylated/(hydroxylated+non-hydroxylated peptide). The IC50 for 2,4-PDCA was determined from non-linear regression curve fitting using GraphPad prism 6.0.

For a further data set, the system named is AR-V7 in 22Rv1 PC cells. The data set can be described thus: AR-V7 protein (WB) and mRNA (qPCR) levels in 22Rv1 PC cells. Conditions: 2,4-PDCA for 48 hours. Format: cell-based. How it is done: (§1) All cell lines were purchased from LGC Standards/ATCC unless otherwise specified and grown in recommended media at 37° C. in 5% CO2. Short tandem repeat profiling was performed using the Cell Authentication Service by Eurofins Medigenomix to ensure the quality and integrity of the cell lines used. Cells lines were tested for mycoplasma after thawing, then regularly every 6-8 weeks during culture using the Venor®GeM Advance Mycoplasma Detection Kit (Minerva Biolabs). Early passages were thawed every 3-months (after approximately 15-20 passages). Small interfering RNA (siRNA): All siRNAs were ONTARGETplus pools (Dharmacon; GE heathcare), and used in combination with 0.4% RNAiMax transfection reagent (ThermoFisher Scientific) as per manufacturer's instructions. siRNA experiments were performed at 50 nM, unless otherwise specified, for 72-hours. […]
(§2) 0.45 μm pore size (Millipore). […] Chemiluminescence was then detected using the Chemidoc Touch imaging system (BioRad). Quantitative Reverse Transcription Polymerase Chain Reaction (qRT-PCR)
(§3) The RNeasy Plus Mini kit (Qiagen) was used to extract cellular RNA as per manufacturer's instructions. […] The fold change in mRNA expression levels was calculated by the comparative Ct method, using the formula 2-(-(ΔΔCt).
In general terms: Quantitative PCR measures a nucleic acid by following its amplification.

For data set [1] the following is noted: at least in some cell types; cited from earlier work.
Data set [2] relates to JMJD6 protein in LNCaP95 cells. The data set can be described thus: WB of JMJD6 protein in LNCaP95 cells treated with I-BET151. In kind it is cell-based. As to conditions: I-BET151 for 48 hours. As for the experimental part:
Subsequent to cell lysis with RIPA buffer (Pierce) supplemented with cOmplete™ EDTA-free Protease Inhibitor Cocktail (Roche), protein extracts (20 μg) were separated by electrophoresis on 4-12% NuPAGE® Bis-Tris gel plates (Invitrogen) prior to transfer onto Immobilon-P™ PVDF membranes of 0.45 μm pore size (Millipore). Membranes were then incubated sequentially with primary and then secondary antibody in 5% milk and tris-buffered saline (TBS) and Tween®20 (Sigma Aldrich). Chemiluminescence was then detected using the Chemidoc Touch imaging system (BioRad). Quantitative Reverse Transcription Polymerase Chain Reaction (qRT-PCR)

In data set [3] the test system is AR-V7 in LNCaP95 PC cells. The data set can be described thus: AR-V7 protein (WB) and mRNA (qPCR) levels in LNCaP95 PC cells. In kind it is cell-based. Conditions: I-BET151 for 48 hours. How it is done:
as §1, §2, §3

In the next data set the test system is AR-V7 in VCaP PC cells. The data set can be described thus: AR-V7 protein (WB) and mRNA (qPCR) levels in VCaP PC cells. Format: cell-based. Conditions: 72 hour, siRNA 25 nM, Enzalutamide 10 µM. As for the experimental part: as §1, §2, §3
The next data set has as its system VCaP PC cells. The data set can be described thus: CellTiter-Glo Luminescent Cell Viability Assay, VCaP. Format: cell-based. Conditions: siRNA 25 nM; Enzalutamide; after 5-days; vs control siRNA + DMSO 0.1%. How it is done:
Cells were plated in 48-well tissue culture plates and treated as indicated the following day, then grown for 6-days or until 80-90% confluence. To quantify growth of LNCaP, LNCaP95, 22Rv1 and PNT2 cell lines, cells were fixed with 10% (w/v) aqueous trichloroacetic acid and incubated at 4° C. for 30-minutes prior to washing and air-drying. Subsequently cells were stained with sulforhodamine B (SRB) for 30-minutes prior to excess dye removal with 1% (v/v) aqueous acetic acid and further air-drying. Following this, protein-bound dye was dissolved in 10 mM Tris base solution, transferred to a 96-wellplate, and optical density determined at 510 nm using the Synergy HT microplate reader (BioTek). VCaP cell growth assays were analyzed using CellTiter-Glo® Luminescent Cell Viability Assay (Promega) as per manufacturer instructions, and luminescence quantified using the Synergy HT microplate reader (BioTek).
A general note: Cellular ATP, detected with luciferase, serves as a proxy for viable cell number.

Data set [4] deals with 12-mer peptide substrate of the LUC7L2 pre-mRNA splicing factor.

For the compound `O=C(O)c1ccnc(C(=O)O)c1` [2,4-PDCA, pyridine-2,4-dicarboxylic acid], the “isolated JMJD6-mediated lysyl-5-hydroxylation of LUC7-Like (LUC7L)” value at JMJD6 (1-362) is recorded as “dose-dependent reduction”. In addition, in the data set with AR-V7 in 22Rv1 PC cells, the AR-V7 protein levels entry is “dose-dependent reduction”. In data set [1], the permeability entry is reported as “low”.
On to `COc1cc2c(cc1-c1c(C)noc1C)ncc1[nH]c(=O)n([C@H](C)c3ccccn3)c12` [I-BET151], for which, in data set [2], the JMJD6 protein expression entry is “dose-dependent reduction”. Further, the AR-V7 protein expression result in data set [3] is “dose-dependent reduction”.
In the case of `CNC(=O)c1ccc(N2C(=S)N(c3ccc(C#N)c(C(F)(F)F)c3)C(=O)C2(C)C)cc1F` [enzalutamide], in the data set on AR-V7 in VCaP PC cells, the “AR-V7 protein (WB) levels” value was “increase significantly”. In addition, the “VCaP PC cell viability” value in the data set with VCaP PC cells is “reduced”.
For JMJD6 (1-362), the “lysyl-5-hydroxylation of the peptide substrate (LC-MS, % conversion to the +16 hydroxylated peptide)” value in data set [4] is 2,4-PDCA caused dose-dependent reduction in isolated JMJD6-mediated lysyl-5-hydroxylation of the known downstream target LUC7-Like (LUC7L).
